# Where a SMILES comes first, the peptide text is derived from it. [ ]: non-standard residue; d: D form. Ala(6-(2-MePh)pyridin-3-yl) = Cc1ccccc1-c1ccc(C[C@H](N)C(=O)O)cn1; Bip(2'-Et-4'-OMe) = CCc1cc(OC)ccc1-c1ccc(C[C@H](N)C(=O)O)cc1; αMePhe(2-F) = C[C@](N)(Cc1ccccc1F)C(=O)O; Aib = CC(C)(N)C(=O)O
# What was measured:
# [1] = Solubility of protamine/Compound of SEQ ID NO:9 adduct and in protamine solution; type: physicochemical
# Text: Thus, the administration of the protamine/Compound of SEQ ID NO:9 adduct may need a suitable suspending agent; or it maybe injected as dry powder.
# Therefore, suspension of the compound of SEQ ID NO:9 in the presence of protamine could still provide extended release effect without using pre-formed protamine/SEQ ID NO:9 adduct.
# C57BL/6J-ob/ob mice = experiment: Intraperitoneal glucose tolerance test (ipGTT) in ob/ob mice after subcutaneous injection; type: in vivo, mouse
# Protocol: Peptides were dissolved in an appropriate vehicle at a concentration in nmol/ml equivalent to the dose that was to be administered in nmol/kg so that each mouse would receive the same volume/weight of dosing solution. Male C57BL/6J-ob/ob mice (10 weeks old) were randomized into groups of 6 mice per group based on fed plasma glucose and body weight. After an overnight fast, mice were weighed and placed in the experimental lab. After 30 min in the environment, the mice were bled via tail tip at −30 min and immediately injected subcutaneously (sc) with vehicle or the peptide dissolved in vehicle (0.1 ml solution/100 g body weight). At time 0 the mice were bled and then injected intraperitoneally with 50% glucose (2 g/kg) to initiate the intraperitoneal glucose tolerance test (ipGTT). The mice were bled 30, 60, 120 and 180 min after the glucose injection. Blood samples were drawn into potassium EDTA, placed on ice during the study and subsequently centrifuged for 10 min at 3000 rpm at 4° C. Plasma samples were diluted 1-fold for glucose analysis in the Cobas System. Another 5 μl plasma sample was diluted 5-fold with 20 μl of Sample Diluent (Insulin ELISA assay kit, Crystal Chem Inc.) and stored at −20° C. for subsequent analysis using the Ultra Sensitive Mouse Insulin ELISA kit (Crystal Chem Inc.).
structure (smiles),measurement,setting,value
CCc1cc(OC)ccc1-c1ccc(C[C@H](NC(=O)[C@H](CC(=O)O)NC(=O)[C@H](CO)NC(=O)[C@@H](NC(=O)[C@](C)(Cc2ccccc2F)NC(=O)[C@@H](NC(=O)CNC(=O)[C@H](CCC(=O)O)NC(=O)C(C)(C)NC(=O)[C@@H](N)Cc2c[nH]cn2)[C@@H](C)O)[C@@H](C)O)C(=O)N[C@@H](Cc2ccc(-c3ccccc3C)nc2)C(N)=O)cc1 [SEQ ID NO: 9] (H-H[Aib]EGT[αMePhe(2-F)]TSD[Bip(2'-Et-4'-OMe)][Ala(6-(2-MePh)pyridin-3-yl)]-NH2),solubility,[1]; MeOH,> 50 mg/mL
same,solubility as a function of protamine in the solution,"[1]; pH 6.8, 50 mM PB buffer",decreases with increase of protamine in the solution
same,Potency in ob/ob mice: % AUC Reduction in Plasma Glucose in an IP Glucose Tolerance Test after SC Injection of Compound,"C57BL/6J-ob/ob mice; 10 nmol/kg sc, relative to vehicle-treated group",−68% (p < 0.0001)
same,maximum increase in postprandial insulin AUC,"C57BL/6J-ob/ob mice; 30 nmol/kg sc, ipGTT ob/ob mice",187.7%
same,plasma glucose AUC decrease,"C57BL/6J-ob/ob mice; 100 nmol/kg sc, ipGTT ob/ob mice",85.8%
same,effect on postprandial plasma glucose,"C57BL/6J-ob/ob mice; sc in ob/ob mice, between 0 and 180 or 210 minutes",statistically significant decrease
same,Potency in ob/ob mice ED50,"C57BL/6J-ob/ob mice; sc injection, plasma glucose AUC in ipGTT",5 nmol/kg
